What all share (type): biochemical
One experiment addresses ALK (Homo sapiens, UniProt Q9UM73). The experiment in a line: ALK kinase assay (Kinase-Glo / AlphaScreen, purified NPM-ALK). Also noted: fused to the complete intracytoplasmic portion of ALK containing the functional tyrosine kinase domain; 6xHis; made in house; host or cells: insect cells; the other entry of the earlier key: NPM1 (P06748, Nucleophosmin). As to conditions: Table 1; read-out: ALK IC50. A general note: Kinase-Glo measures the ATP left after a reaction by luminescence.

For a further experiment, the target named is T1, IGF1R (Homo sapiens, UniProt P08069).
T1 construct: 6×His- or GST-tagged kinase domain fragments of the corresponding RTKs expressed in baculovirus system; host or cells: baculovirus system
The experiment in a line: IGF1R kinase assay. The conditions noted are these: Table 1; read-out: IGF1R IC50. On the procedure:
(§1) To determine inhibition of several tyrosine kinases, such as IGF1R, InsR, Alk, TrkA and Jak2, kinase assays are conducted using either Kinase-Glo (Promega) or AlphaScreen (PerkinElmer) kinase assay platforms. The Kinase-Glo Luminescent Kinase Assay is a homogeneous method for measuring kinase activity by determining the amount of ATP remaining after a kinase reaction. The luminescent signal is proportional to the amount of ATP and inversely proportional to the amount of kinase activity. Tyrosine kinase PT66 AlphaScreen Assay is a high-sensitivity homogeneous, anti-phosphotyrosine antibody-mediated luminescent proximity method measuring incorporation of phosphate in synthetic poly(Glu-Tyr) substrate. The kinase preparations used consist of purified recombinant, 6×His- or GST-tagged kinase domain fragments of the corresponding RTKs expressed in baculovirus system.
(§2) Compounds with a range of concentrations 40 μM, 20 μM, 10 μM, 5 μM, 2.5 μM, 1.25 μM, 0.625 μM, 0.3125 μM, 0.15625 μM and 0.078125 μM were incubated with NPM-ALK, which was produced in insect cells as a 6×HIS-tagged fusion protein and purified using nickel-charged resin chromatography, for 30 minutes at RT in the presence of 10 μM ATP and 7.0 ng biotinylated poly-GT. A 1:1 mixture of […] and donor beads was then added to the reaction and incubated for an additional 60 minutes at RT. The assay was conducted on a MultiPROBE liquid handling workstation (PerkinElmer) in a 384-well plate format with a total reaction volume of 40 μL per well. Working stocks of all compounds were dissolved in 100% DMSO and serial dilutions of the compounds were performed using kinase buffer (50 mM Tris-HCl (pH 7.5), 5 mM MgCl2, 5 mM MnCl2, 2 mM DTT (added freshly before use), 0.01% Tween-20) containing 5% DMSO. […] Data were collected as optical readings at 520-680 nm on a Fusion™ microplate analyzer (PerkinElmer), and IC50 and Ki values calculated using PRISM3.0 software (GraphPad Software, Inc., San Diego, Calif.). The same assay was also used with minor modifications to assess the IC50 and Ki values for selected compounds against five other tyrosine kinases (IRK, IGF1R, Flt3, Abl, Src), all of which were purchased from commercial vendors. PolyGT-Biotin was bought from CIS Biointernational Cat. #61GT0BLD; ATP—from Sigma Cat. # A7699; sodium orthovanadate—from Sigma Cat. #S-6508; phosphotyrosine (PT66) assay kit from PerkinElmer Cat. #6760602M; automated workstation tips (20 μL): PerkinElmer Cat. #6000657; and OptiPlate-384 (white)—from PerkinElmer Cat. #6007299.

The target of a further experiment is T2, IRK (Homo sapiens, UniProt P06213).
T2 construct: 6×His- or GST-tagged kinase domain fragments of the corresponding RTKs expressed in baculovirus system; host or cells: baculovirus system
The experiment in a line: IRK (insulin receptor kinase) assay. As to conditions: Table 1; read-out: IRK IC50. The method, then:
as §1, §2

Where only a bound is given, the exact number is not on record here.

T1 sequence (P08069 999-1274 limits assumed): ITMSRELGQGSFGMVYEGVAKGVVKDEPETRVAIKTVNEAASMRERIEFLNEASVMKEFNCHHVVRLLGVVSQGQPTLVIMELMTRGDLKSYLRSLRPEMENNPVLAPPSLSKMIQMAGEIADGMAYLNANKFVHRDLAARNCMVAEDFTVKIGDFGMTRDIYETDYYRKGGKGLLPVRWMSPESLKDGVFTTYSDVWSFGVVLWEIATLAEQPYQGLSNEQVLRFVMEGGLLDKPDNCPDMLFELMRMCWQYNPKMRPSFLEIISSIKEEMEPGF
Chain of ALK (Q9UM73 with tags, fused parts or gaps): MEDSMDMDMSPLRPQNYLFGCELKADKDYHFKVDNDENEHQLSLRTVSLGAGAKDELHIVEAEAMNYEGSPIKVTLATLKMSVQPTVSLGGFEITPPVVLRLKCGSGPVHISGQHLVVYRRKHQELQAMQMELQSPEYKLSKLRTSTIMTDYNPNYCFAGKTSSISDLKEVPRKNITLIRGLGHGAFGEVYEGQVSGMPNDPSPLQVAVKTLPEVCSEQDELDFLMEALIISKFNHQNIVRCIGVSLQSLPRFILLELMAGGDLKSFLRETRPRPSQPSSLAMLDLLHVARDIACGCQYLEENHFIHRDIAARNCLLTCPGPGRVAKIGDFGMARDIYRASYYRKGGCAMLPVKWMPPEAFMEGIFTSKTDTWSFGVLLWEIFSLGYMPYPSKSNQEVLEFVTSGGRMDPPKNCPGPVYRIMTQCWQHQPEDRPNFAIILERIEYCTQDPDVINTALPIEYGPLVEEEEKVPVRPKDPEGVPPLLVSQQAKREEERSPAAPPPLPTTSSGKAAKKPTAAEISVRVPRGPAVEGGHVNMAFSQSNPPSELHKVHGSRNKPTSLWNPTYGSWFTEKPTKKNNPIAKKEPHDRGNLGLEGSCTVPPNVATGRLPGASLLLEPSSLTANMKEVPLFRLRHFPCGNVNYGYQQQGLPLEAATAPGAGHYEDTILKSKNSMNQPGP
T2 sequence (P06213 1023-1298 limits assumed): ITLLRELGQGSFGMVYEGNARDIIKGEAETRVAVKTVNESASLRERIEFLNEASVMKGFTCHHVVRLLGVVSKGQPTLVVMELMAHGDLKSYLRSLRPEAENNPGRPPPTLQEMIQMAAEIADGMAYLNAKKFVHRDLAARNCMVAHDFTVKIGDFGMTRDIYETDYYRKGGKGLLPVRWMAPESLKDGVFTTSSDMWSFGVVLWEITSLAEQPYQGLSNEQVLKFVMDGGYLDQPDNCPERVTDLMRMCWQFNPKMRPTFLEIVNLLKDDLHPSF

With `Cc1ccc(C(F)(F)F)cc1C[C@H](C)Nc1cc[nH]c(=O)c1-c1nc2cc3c(cc2[nH]1)CN(CCN1CCCC1)C3=O`, the values for the IC50 at ALK, on IGF1R and on IRK were more than 1000 nM, more than 1000 nM and 250 to 1000 nM, respectively.

Regarding `Cc1ccc(N(C)C)cc1C[C@H](C)Nc1cc[nH]c(=O)c1-c1nc2cc3c(cc2[nH]1)CN(CCN1CCCC1)C3=O`, the IC50 at ALK, on IGF1R and on IRK was more than 1000 nM throughout.

As for `Cc1ccc(F)cc1C[C@H](C)Nc1cc[nH]c(=O)c1-c1nc2cc3c(cc2[nH]1)CN(CCN1CCOCC1)C3=O`, the values for the IC50 on ALK, at IGF1R and at IRK were 100 to 250 nM, 100 to 250 nM and more than 1000 nM, respectively.

For the compound `C[C@@H](Cc1cc(F)cc(F)c1F)Nc1cc[nH]c(=O)c1-c1nc2cc3c(cc2[nH]1)CN(CCN(C)C)C3=O` [drawing 325], the IC50 (usually the concentration needed to halve the response being measured) at ALK is less than 10 nM; on IGF1R, 100 to 250 nM; at IRK, 250 to 1000 nM.

Turning to `CCc1ccccc1C[C@H](C)Nc1cc[nH]c(=O)c1-c1nc2cc3c(cc2[nH]1)CN(CCN1CCCC1)C3=O`, the IC50 at ALK is 10 to 100 nM; at IGF1R it was more than 1000 nM; on IRK it was 250 to 1000 nM.

For the compound `Cc1ccsc1C[C@H](C)Nc1cc[nH]c(=O)c1-c1nc2cc3c(cc2[nH]1)CN(CCN1CCC[C@H]1C)C3=O`, the IC50 at ALK was in the range of 10 to 100 nM; on IGF1R it was 250 to 1000 nM; at IRK, 100 to 250 nM.

For the compound `C[C@@H](Cc1cccs1)Nc1cc[nH]c(=O)c1-c1nc2cc3c(cc2[nH]1)C(=O)N(CCCN(C)C)C3`, the IC50 on ALK was 100 to 250 nM; at IGF1R it was 250 to 1000 nM; at IRK it was 100 to 250 nM.

On to `COc1ccc(OC)c(C[C@H](C)Nc2cc[nH]c(=O)c2-c2nc3cc4c(cc3[nH]2)CN(CCN2CCCC2)C4=O)c1`, for which the IC50 was 100 to 250 nM on ALK, more than 1000 nM on IGF1R and 250 to 1000 nM at IRK.

Take `Cc1ccc(F)cc1C[C@H](C)Nc1cc[nH]c(=O)c1-c1nc2cc3c(cc2[nH]1)CNC3=O`: the IC50 was 10 to 100 nM at ALK, 250 to 1000 nM on IGF1R and more than 1000 nM at IRK.

As for `CN1CCC(N2C(=O)c3cc4nc(-c5c(N[C@@H](CO)Cc6ccccc6)cc[nH]c5=O)[nH]c4cc3C2=O)CC1`, the IC50 at ALK is 100 to 250 nM; at IGF1R, more than 1000 nM; at IRK, more than 1000 nM.

`Cc1ccc(F)cc1C[C@H](C)Nc1cc[nH]c(=O)c1-c1nc2cc3c(cc2[nH]1)CN(CCN1CCC[C@H]1C)C3=O` [drawing 339]: the IC50 at ALK was 10 to 100 nM; on IGF1R it was more than 1000 nM; at IRK it was 250 to 1000 nM.

Regarding `COc1ccc(F)cc1C[C@H](C)Nc1cc[nH]c(=O)c1-c1nc2cc3c(cc2[nH]1)CN(CCN1CCCC1)C3=O`, the results for the IC50 on ALK, on IGF1R and at IRK were 10 to 100 nM, 100 to 250 nM and 250 to 1000 nM, respectively.

In the case of `C[C@@H](Cc1cc(F)ccc1Br)Nc1cc[nH]c(=O)c1-c1nc2cc3c(cc2[nH]1)CN(CCN1CCCC1)C3=O` [drawing 330], the IC50 at ALK is less than 10 nM; at IGF1R, 250 to 1000 nM; at IRK, 100 to 250 nM.

With `Cc1ccc(C(F)(F)F)cc1C[C@H](C)Nc1cc[nH]c(=O)c1-c1nc2cc3c(cc2[nH]1)CN(CCN1CCOCC1)C3=O`, the IC50 on ALK was 250 to 1000 nM; on IGF1R, more than 1000 nM; on IRK, more than 1000 nM.

`Cc1ccc(C(F)(F)F)cc1C[C@H](C)Nc1cc[nH]c(=O)c1-c1nc2cc3c(cc2[nH]1)CN(CCN(C)C)C3=O`: the figures for the IC50 at ALK, on IGF1R and on IRK were 250 to 1000 nM, 100 to 250 nM and 250 to 1000 nM, respectively.

Take `C[C@@H](Cc1ccccc1Cl)Nc1cc[nH]c(=O)c1-c1nc2cc3c(cc2[nH]1)CN(CCN1CCCC1)C3=O`: the IC50 is 250 to 1000 nM on ALK, more than 1000 nM on IGF1R and 100 to 250 nM on IRK.

In the case of `CC(Cc1cccs1)Nc1cc[nH]c(=O)c1-c1nc2cc3c(cc2[nH]1)C(=O)N(CCCN1CCCC1)C3=O` (centres unmarked), the IC50 is 100 to 250 nM at ALK, more than 1000 nM at IGF1R and more than 1000 nM at IRK.

Regarding `C[C@@H](Cc1cccs1)Nc1cc[nH]c(=O)c1-c1nc2cc3c(cc2[nH]1)C(=O)N(CCCN1CCCC1)C3` [drawing 259], the IC50 on ALK lay within 100 to 250 nM; at IGF1R, 250 to 1000 nM; on IRK, 100 to 250 nM.

With `C[C@@H]1CCCN1CCN1Cc2cc3[nH]c(-c4c(N[C@@H](C)Cc5cc(F)cc(F)c5F)cc[nH]c4=O)nc3cc2C1=O` [drawing 340], the IC50 is less than 10 nM on ALK, more than 1000 nM on IGF1R and 250 to 1000 nM on IRK.

For the compound `Cc1cc(F)ccc1C[C@H](C)Nc1cc[nH]c(=O)c1-c1nc2cc3c(cc2[nH]1)C(=O)N(CCN1CCCC1)C3`, the values for the IC50 at ALK, on IGF1R and at IRK were 10 to 100 nM, more than 1000 nM and 250 to 1000 nM, respectively.

With `COc1ccsc1C[C@H](C)Nc1cc[nH]c(=O)c1-c1nc2cc3c(cc2[nH]1)CN(CCCN1CCCC1)C3=O`, the IC50 at ALK and at IGF1R was 250 to 1000 nM throughout.

Regarding `Cc1c(F)cc(F)cc1C[C@H](C)Nc1cc[nH]c(=O)c1-c1nc2cc3c(cc2[nH]1)CN(CCN(C)C)C3=O`, the IC50 on ALK fell in the range of 100 to 250 nM; on IGF1R it was 250 to 1000 nM.

For `CC(Cc1ccc(Cl)s1)Nc1cc[nH]c(=O)c1-c1nc2cc3c(cc2[nH]1)C(=O)N(CCCN1CCCC1)C3` (centres unmarked), the IC50 on ALK and on IGF1R was 250 to 1000 nM each time.

Consider `C[C@H](Nc1cc[nH]c(=O)c1-c1nc2cc3c(cc2[nH]1)C(=O)N(CCCN1CCCC1)C3=O)[C@H](O)c1ccccc1`, for which the IC50 was in the range of 100 to 250 nM on ALK and 250 to 1000 nM at IGF1R.

Consider `CC(Cc1ccsc1)Nc1cc[nH]c(=O)c1-c1nc2cc3c(cc2[nH]1)C(=O)N(CCCN1CCCC1)C3` (centres unmarked), for which the IC50 at ALK and on IGF1R was 250 to 1000 nM each time.

As to `C[C@H](CN1Cc2cc3nc(-c4c(N[C@@H](C)Cc5sccc5Cl)cc[nH]c4=O)[nH]c3cc2C1=O)N(C)C`, the IC50 at ALK is less than 10 nM; at IGF1R, 250 to 1000 nM.

For the compound `C[C@H](CN(C)C)N1Cc2cc3nc(-c4c(N[C@@H](C)Cc5sccc5Cl)cc[nH]c4=O)[nH]c3cc2C1=O`, the IC50 at ALK was 10 to 100 nM; at IGF1R, 100 to 250 nM.

Regarding `Cc1ccsc1C[C@H](C)Nc1cc[nH]c(=O)c1-c1nc2cc3c(cc2[nH]1)CN(CCN1CCC[C@@H]1C)C3=O`, the IC50 at ALK lay in the range of 100 to 250 nM; on IGF1R, 250 to 1000 nM.

For `C[C@@H](Cc1sccc1Cl)Nc1cc[nH]c(=O)c1-c1nc2cc3c(cc2[nH]1)C(=O)N([C@@H](C)CN(C)C)C3`, the IC50 at ALK was 10 to 100 nM; at IGF1R, 100 to 250 nM.

For `Cc1cc(C)c(CC(C)Nc2cc[nH]c(=O)c2-c2nc3cc4c(cc3[nH]2)C(=O)N(CCCN2CCCC2)C4)s1` (centres unmarked), the values for the IC50 at ALK and on IGF1R were more than 1000 nM and 100 to 250 nM, respectively.

`CC(Cc1ccc(-c2ccccc2)s1)Nc1cc[nH]c(=O)c1-c1nc2cc3c(cc2[nH]1)C(=O)N(CCCN1CCCC1)C3` (centres unmarked): the IC50 at ALK and on IGF1R was more than 1000 nM throughout.

Consider `Cc1ccsc1C[C@H](C)Nc1cc[nH]c(=O)c1-c1nc2cc3c(cc2[nH]1)C(=O)N(CCN(C)CCS(C)(=O)=O)C3`, for which the IC50 was 10 to 100 nM on ALK and 250 to 1000 nM at IGF1R.

On to `Cc1cc(CC(C)Nc2cc[nH]c(=O)c2-c2nc3cc4c(cc3[nH]2)C(=O)N(CCCN2CCCC2)C4)sc1C` (centres unmarked), for which the half-inhibitory concentration (IC50) at ALK is more than 1000 nM; at IGF1R, 250 to 1000 nM.

With `C[C@@H](Cc1ccccc1F)Nc1cc[nH]c(=O)c1-c1nc2cc3c(cc2[nH]1)CN(CCN1CCCC1)C3=O`, the IC50 on ALK is 100 to 250 nM; on IGF1R it was 250 to 1000 nM.

Take `Cc1c(C[C@H](C)Nc2cc[nH]c(=O)c2-c2nc3cc4c(cc3[nH]2)CN(CCN2CCCC2)C4=O)ccc(F)c1F`: the IC50 on ALK and on IGF1R was more than 1000 nM throughout.

With `C[C@@H](Cc1sccc1Cl)Nc1cc[nH]c(=O)c1-c1nc2cc3c(cc2[nH]1)C(=O)N(C[C@H](C)N(C)C)C3=O`, the IC50 is 10 to 100 nM on ALK and more than 1000 nM on IGF1R.

The record behind these values is patent US9249147B2, “Tyrosine kinase inhibitors” (CHEMBRIDGE CORPORATION, priority 2008, dated 2016).
